From US10730875B2, “Substituted imidazo[1,2-A]pyridin-2-ylamine compounds, and pharmaceutical compositions and methods of use thereof” (JN Therapeutics, priority 2015, dated 2020) come the findings set out here.

Molecules are shown by their SMILES.

Data set [1] is described as follows: Pharmacokinetics in Sprague-Dawley rats (HPLC-MS/MS of plasma). It is filed as in vivo. Particulars: rat. How it is done:
The PK parameters of compound 14 were determined in Sprague-Dawley rats (Hubei Provincial Laboratory Animal Research Center) after a single oral (p.o) and intravenous (i.v.) administration using HPLC-MS/MS (Shimadzu LC-20ACXR HPLC coupled with AB Sciex API 4500 Qtrap).
A sensitive and specific HPLC-MS/MS method was developed for the determination of the compound in rat plasma. Multiple reaction monitoring (MRM) mode was used for the quantification of the compound by monitoring the ion transitions at m/z from 443.1 to 375.1. Compound 2 was used as an internal standard and monitored by the ion transition at m/z from 427.1 to 357.1. Calibration curves were constructed in the range of 1.00-1000 ng/mL in rat plasma extract by a 1/×2 weighted quadratic regression. The regression coefficients obtained were greater than 0.99 and back calculated values comprised in the range of ±15% from their nominal concentration.
For the intravenous administration, the compound was dissolved in 25% PEG200 in saline and intravenously administrated at a single dose of 1.00 mg/kg. For the oral administration, the compound was suspended in 0.5% sodium carboxymethylcellulose (CMC-Na) solution and intragastrically administrated at a single dose of 5.00 mg/kg. Approximately 0.200 mL of blood sample were collected from orbital venous plexus at 0 (predose), 0.25, 0.5, 1, 2, 4, 8, 12 and 24 hrs post dosing. All samples were placed into EDTA-K2-treated tubes and centrifuged at 3,500 rpm at 4° C. for 10 min to separate the plasma fractions. The plasma samples were stored at −20° C. prior to analysis. The plasma samples were analyzed with the HPLC-MS/MS method.

Data set [2] has as its system human Janus kinase 3 (JAK3), recombinant catalytic domain. The data set can be described thus: LanthaScreen TR-FRET enzymatic assay, JAK3. Format: biochemical. Particulars: ratio of IC50 against JAK3 over IC50 against JAK1. An outline of the steps: (§1)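 Insect-cell-expressed catalytic domains (JAK1 aa 866-1154, 440 ng/mL; JAK2 aa 808-1132, 11 ng/mL; JAK3 aa 781-1124, 400 ng/mL; TYK2 aa 833-1187, 200 ng/mL) preincubated 15 min with compound, then reacted 1 h at room temperature with 100 nM GFP-STAT1 and 1 mM ATP. pTyr701 detected by TR-FRET (terbium antibody); IC50 from 10-dose sigmoid fits.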
A general note: TR-FRET usually uses a lanthanide donor and a delayed reading to cut background.

For data set [3], the target named is human Janus kinase 3 (JAK3), recombinant catalytic domain (Homo sapiens (Human), UniProt P52333). The data set can be described thus: LanthaScreen TR-FRET enzymatic assay, JAK3. Format: biochemical. As to conditions: TR-FRET, 1 mM ATP, GFP-STAT1 substrate; read-out: Inhibitory Activity IC50 JAK3. An outline of the steps: as §1
[4] abbreviates: Sprague-Dawley, plasma, IV, single dose 1.00 mg/kg.
The mark [5] stands for this setting: Sprague-Dawley, plasma, PO, single dose 5.00 mg/kg.

What is called AUC(0-t) is exposure summed from dosing to a finite time, without extrapolation to infinity. In general, MRT refers to the average time that molecules of a dose stay in the body. The term clearance denotes the volume of plasma or blood freed of the substance per unit of time. Low values mean inefficient removal, high ones efficient removal. By half-life is commonly meant the time needed for the level to fall by half in the phase considered. Read a low half-life as fast loss. Usually Cmax stands for the highest concentration seen after dosing. A word on the Tmax: it is the time from dosing to the highest level. One may read the IC50 as the concentration at which inhibition is half-maximal.

human Janus kinase 3 (JAK3), recombinant catalytic domain (Homo sapiens (Human), UniProt P52333), sequence (P52333 781-1124): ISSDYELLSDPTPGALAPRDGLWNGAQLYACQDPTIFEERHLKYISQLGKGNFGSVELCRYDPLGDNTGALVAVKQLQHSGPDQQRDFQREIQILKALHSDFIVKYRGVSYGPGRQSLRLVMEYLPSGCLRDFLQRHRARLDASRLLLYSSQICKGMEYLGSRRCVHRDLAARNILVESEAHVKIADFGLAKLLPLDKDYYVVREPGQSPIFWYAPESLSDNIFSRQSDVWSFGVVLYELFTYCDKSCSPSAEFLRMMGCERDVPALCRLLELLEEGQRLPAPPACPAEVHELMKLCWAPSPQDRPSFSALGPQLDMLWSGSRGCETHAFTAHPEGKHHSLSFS

The molecule `O=C(Nc1cn2c(-c3ccc(CN4CCS(=O)(=O)CC4)cc3F)cccc2n1)C1CC1` [Compound 14] showed a F in data set [1] (PO, single dose 5.00 mg/kg) of 46.7 ± 7.3%. In data set [1] (setting [4]), this molecule had an AUC(0-t) of 677 ± 122 ng·h/mL, an MRT of 1.4 ± 0.2 h, a clearance of 24.8 mL/min/kg and a half-life of 1.4 ± 0.3 h. Further, the Vd in data set [1] (Sprague-Dawley, plasma, IV, single dose 1.00 mg/kg, read-out: Vz) came out at 2.98 ± 0.912 L/kg. In addition, in data set [1] (setting [5]), the AUC(0-t) amounted to 1590 ± 253 ng·h/mL, the Cmax is 571 ± 190 ng/mL, the mean residence time MRT came out at 2.3 ± 0.4 h and the Tmax was determined as 0.63 ± 0.25 h. For the same molecule, in data set [1] (setting [5]), the half-life was 1.9 ± 0.3 h. For the same molecule, in data set [2], the “Selectivity JAK3/JAK1” value is recorded as “A′ (A′ represents a ratio of greater than 8)”. Moreover, the half-maximal inhibitory concentration (IC50) in data set [3] was above 5 µM.
